Key:
Format in all cases: in vivo
Parameters in all cases: key: 5: completely killed; 4: seriously injured; 3: considerably injured; 2: somewhat injured; 1: slightly injured; 0: not injured (normally grown)
[1] = tested on: tamagayatsuri (small-flowered umbrellaplant, Cyperus difformis); assay: Experiment 7 flooded soil treatment: tamagayatsuri; conditions: evaluated 4 weeks after treatment
Source text: (§1) Paddy soil (clay loam) was put into a pot so as to have a surface area of 1/15500 ares. Uniformly mixed seeds of several kinds of weeds, viz., nobie (barnyardgrass, Echinochloa spp.), broad-leaved weeds, hotarui (bulrush, Scirpus juncoides) and tamagayatsuri (small-flowered umbrellaplant, Cyperus difformis), were sown in the surface layer of the soil in each pot, and then paddy rice seedlings at the two- or three-leaved stage were transplanted into each pot to a depth of 2 cm, and water was fed into each pot so as to provide a 3 cm deep water layer on the soil surface. After 3 days, in other words at the initial stage of germination of nobie (barnyardgrass, Echinochloa spp.), a predetermined amount of a selected compound obtained in a manner analogous to Example 14 in the form of diluted aqueous solution was dropped into the water layer in each pot. After that, the pots were kept in a glass chamber to allow the paddy rice and the weeds to grow, and after the lapse of 4 weeks from the treatment with the selected compounds, the herbicidal effects and the degree of injury to the paddy rice were evaluated. The evaluation of the herbicidal effects was similarly conducted as that of Experiment 1.

rice = assay: Experiment 8 foliage treatment: rice; conditions: foliage spray of wettable powder suspension, evaluated 4 weeks after treatment
Protocol: (§2) Upon seedling stage (two- or three-leaved stage) of rice, cockspur (Panicum crus-galli), garden radish, aobiyu (slender amaranth, Amaranthus viridis) and mehishiba (henry crabgrass, Digitaria cliaris) which were grown on a cultivated soil put in pots of 1/15500 ares, a selected compound obtained in a manner analogous to Example 14, in suspended wettable powder, was sprayed to each plant. After that, the pots were kept in a glass chamber to allow each plant to grow, and after the lapse of 4 weeks from the treatment with the selected compounds the herbicidal effects were evaluated. The evaluation of the herbicidal effects was similarly conducted as to that of Experiment 1.

[2] = tested on: aobiyu (slender amaranth, Amaranthus viridis); assay: Experiment 8 foliage treatment: aobiyu; conditions: foliage spray of wettable powder suspension, evaluated 4 weeks after treatment
Protocol: as §2

[3] = tested on: cockspur (Panicum crus-galli); assay: Experiment 8 foliage treatment: cockspur; conditions: foliage spray of wettable powder suspension, evaluated 4 weeks after treatment
Protocol: as §2

broad-leaved weeds = assay: Experiment 7 flooded soil treatment: broad-leaved weeds; conditions: evaluated 4 weeks after treatment
Source text: as §1

garden radish = assay: Experiment 8 foliage treatment: garden radish; conditions: foliage spray of wettable powder suspension, evaluated 4 weeks after treatment
Protocol: as §2

paddy rice = assay: Experiment 7 flooded soil treatment: injury to paddy rice; conditions: evaluated 4 weeks after treatment
Source text: as §1

[4] = tested on: nobie (barnyardgrass, Echinochloa spp.); assay: Experiment 7 flooded soil treatment: nobie; conditions: evaluated 4 weeks after treatment
Source text: as §1

[5] = tested on: hotarui (bulrush, Scirpus juncoides); assay: Experiment 7 flooded soil treatment: hotarui; conditions: evaluated 4 weeks after treatment
Source text: as §1

[6] = tested on: mehishiba (henry crabgrass, Digitaria cliaris); assay: Experiment 8 foliage treatment: mehishiba; conditions: foliage spray of wettable powder suspension, evaluated 4 weeks after treatment
Protocol: as §2

Row | SMILES | Herbicidal Effect tamagayatsuri ([1]; 6.25 g/10a) | Herbicidal Effect tamagayatsuri ([1]; 12.5 g/10a) | Herbicidal Effect rice (rice; 40 g/10a) | Herbicidal Effect rice (rice; 80 g/10a) | Herbicidal Effect aobiyu ([2]; 40 g/10a) | Herbicidal Effect aobiyu ([2]; 80 g/10a) | Herbicidal Effect cockspur ([3]; 40 g/10a) | Herbicidal Effect cockspur ([3]; 80 g/10a) | Herbicidal Effect broad-leaved weed (broad-leaved weeds; 6.25 g/10a) | Herbicidal Effect broad-leaved weed (broad-leaved weeds; 12.5 g/10a) | Herbicidal Effect garden radish (garden radish; 40 g/10a) | Herbicidal Effect garden radish (garden radish; 80 g/10a) | Injury of Paddy (paddy rice; 6.25 g/10a) | Injury of Paddy (paddy rice; 12.5 g/10a) | Herbicidal Effect nobie ([4]; 6.25 g/10a) | Herbicidal Effect nobie ([4]; 12.5 g/10a) | Herbicidal Effect hotarui ([5]; 6.25 g/10a) | Herbicidal Effect hotarui ([5]; 12.5 g/10a) | Herbicidal Effect mehishiba ([6]; 40 g/10a) | Herbicidal Effect mehishiba ([6]; 80 g/10a)
1 | C#CC(C)Oc1cc(N(C(=O)C2=C(C(=O)OCCOC)CCCC2)C(=O)c2cccs2)c(F)cc1Cl (stereo not drawn) [compound 94] | 5 | 5 | 1 | 1 | 5 | 5 | 1 | 1 | 5 | 5 | 5 | 5 | 0.5 | 0.5 | 5 | 5 | 5 | 5 | 1 | 1
2 | C#CC(C)Oc1cc(N(C(=O)C2=C(C(=O)OC)CCCC2)C(=O)c2sccc2C)c(F)cc1Cl (stereo not drawn) [compound 95] | 5 | 5 | 1 | 1 | 5 | 5 | 1 | 1 | 5 | 5 | 4 | 4 | 0 | 0 | 5 | 5 | 4 | 4 | 1 | 1
3 | C#CC(C)Oc1cc(N(C(=O)C2=C(C(=O)OC)CCCC2)C(=O)c2ccc(C)s2)c(F)cc1Cl (stereo not drawn) [compound 96] | 5 | 5 | 1 | 1 | 5 | 5 | 1 | 1 | 5 | 5 | 5 | 5 | 0 | 0.5 | 5 | 5 | 4 | 4 | 1 | 1
4 | COC(=O)C1=C(C(=O)N(C(=O)c2cccs2)c2cc(OC3CCCC3)c(Cl)cc2F)CCCC1 [compound 98] | 5 | 5 | 1 | 1 | 4 | 5 | 1 | 1 | 5 | 5 | 4 | 4 | 0.5 | 0.5 | 5 | 5 | 4 | 5 | 1 | 1
5 | COC(=O)COc1cc(N(C(=O)C2=C(C(=O)OC)CCCC2)C(=O)c2cccs2)c(F)cc1Cl [compound 99] | 4 | 5 | 1 | 1 | 4 | 5 | 1 | 1 | 5 | 5 | 4 | 4 | 0 | 0 | 5 | 5 | 4 | 4 | 1 | 1
6 | C#CC(C)Oc1cc(N(C(=O)C2=C(C(=O)OCCC)CCCC2)C(=O)c2ccsc2)c(F)cc1Cl (stereo not drawn) [compound 101] | 5 | 5 | 1 | 1 | 5 | 5 | 1 | 1 | 5 | 5 | 5 | 5 | 0.5 | 1 | 5 | 5 | 4 | 4 | 1 | 1
